Measurements reported in patent publication US7598029B2, “Method for identifying HIV-1 protease inhibitors with reduced metabolic affects” (Bristol-Myers Squibb Company, priority 2006, dated 2009).

What was measured:
cathepsin D = target: T1, cathepsin D (Homo sapiens, UniProt P07339); assay: Protease digestion of resistin by cathepsin D with HIV-1 protease inhibitors, SDS-PAGE; type: biochemical; conditions: for inhibition of cleavage of resistin by cathepsin D: 1 ug alkylated and reduced resistin, 0.1 ug cathepsin D
T1 construct: purchased R&D Systems Inc
T1 sequence (P07339 65-412): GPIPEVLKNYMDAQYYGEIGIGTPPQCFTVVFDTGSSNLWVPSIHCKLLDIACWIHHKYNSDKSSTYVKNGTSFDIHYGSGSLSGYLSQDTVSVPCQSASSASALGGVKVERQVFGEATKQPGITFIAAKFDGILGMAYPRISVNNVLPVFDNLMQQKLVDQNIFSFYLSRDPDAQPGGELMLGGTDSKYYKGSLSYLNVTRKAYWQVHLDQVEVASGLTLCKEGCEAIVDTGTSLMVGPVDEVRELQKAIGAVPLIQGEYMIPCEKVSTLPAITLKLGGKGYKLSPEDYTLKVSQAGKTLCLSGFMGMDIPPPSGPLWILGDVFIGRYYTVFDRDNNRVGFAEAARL
Description: (§1) Atazanavir was synthesized by and provided in pure form from the Chemistry Division of Bristol-Myers Squibb Co. All compounds were dissolved in 100% DMSO (Sigma). The final concentration of DMSO was 0.2% in experiments that included a protease inhibitor.
(§2) Recombinant Proteins: Recombinant human and mouse resistin were obtained from Santa Cruz Biotech. Recombinant cathepsin D and cathepsin E were obtained from R&D Systems Inc. Recombinant HIV-1 protease was obtained from Protein One. Recombinant renin was obtained from Cayman Chemical and recombinant trypsin was from Promega.
(§3) Alkylation/Reduction of Cysteine Residues: Lyophilized resistin (24 micrograms) was resuspended in 50 ul of fresh UA buffer (8 M urea, 0.4 M ammonium bicarbonate) and 5 ul of 45 mM DTT. The mixture was then incubated at 50° C. for 15 min, followed by addition of 5 ul of 0.1 M iodoacetamide. The reaction was then incubated for an additional 15 min in the dark at room temperature, followed by the addition of 140 ul of H20.
(§4) Preparation of Proteases: Lyophilized cathepsin D (10 ug) was resuspended in 100 ul H20. Cathepsin D was activated prior to use by incubating at 20 ng/ul in CathD buffer (100 mM NaOAc, 200 mM NaCl, pH 4.7) for 30 min at 37° C. Lyophilized cathepsin E (10 ug) was resuspended in 100 ul of reconstitution buffer (25 mM MES, 0.15 M NaCl, pH 6.5). Cathepsin E was activated prior to use by incubating at 20 ng/ul in CathE buffer (100 mM NaOAc, 100 mM NaCl, pH 4.7) for 30 min at room temperature. Renin was diluted to 20 ng/ul in renin buffer (50 mM Tris-HCl, pH 8, 100 mM NaCl) prior to use. Lyophilized trypsin (20 ug) was resuspended in 500 ul reconstitution buffer provided by the manufacturer (Promega). Trypsin was activated prior to use by incubating for 15 min at 30° C. HIV-1 protease was used directly from the manufacturer.
(§5) Protease Digestion Experiments: In all protease digestion reactions, 1 ug of alkylated and reduced resistin was incubated with either 1 ug HIV-1 protease, 0.1 ug cathepsin D, 0.1 ug cathepsin E or 0.1 ug trypsin. HIV-1 protease digestion was performed in HIV-1 PR buffer (50 mM MES (pH 6), 100 mM NaCl). Trypsin digestion was performed in TE buffer (10 mM Tris (pH 8), 0.1 mM EDTA (pH 8)). The respective reaction buffers for cathepsin D, cathepsin E and renin are listed above under “Preparation of proteases”. […] All protease digestion experiments were incubated for 24 hr at 37° C. with the exception of experiments containing cathepsin E, which were incubated at room temperature. Reactions were quenched in LDS loading dye (Invitrogen) containing reducing agent (Invitrogen). Reactions were subsequently heated at 70° C. for 5 min prior analysis by SDS-PAGE.
(§6) SDS-PAGE Analysis: Cleavage products were resolved using 4-12% Bis-Tris NUPAGE® Gels (Invitrogen). Gels were run at 200 V for 20 min in MES buffer. Protein bands were visualized by staining with Gel Code reagent (Pierce).

cathepsin E = target: T2, cathepsin E (Homo sapiens, UniProt P14091); assay: Protease digestion of resistin by cathepsin E with HIV-1 protease inhibitors, SDS-PAGE; type: biochemical; conditions: for inhibition of cleavage of resistin by cathepsin E: 1 ug alkylated and reduced resistin, 0.1 ug cathepsin E
T2 construct: purchased R&D Systems Inc
T2 sequence (P14091 54-396): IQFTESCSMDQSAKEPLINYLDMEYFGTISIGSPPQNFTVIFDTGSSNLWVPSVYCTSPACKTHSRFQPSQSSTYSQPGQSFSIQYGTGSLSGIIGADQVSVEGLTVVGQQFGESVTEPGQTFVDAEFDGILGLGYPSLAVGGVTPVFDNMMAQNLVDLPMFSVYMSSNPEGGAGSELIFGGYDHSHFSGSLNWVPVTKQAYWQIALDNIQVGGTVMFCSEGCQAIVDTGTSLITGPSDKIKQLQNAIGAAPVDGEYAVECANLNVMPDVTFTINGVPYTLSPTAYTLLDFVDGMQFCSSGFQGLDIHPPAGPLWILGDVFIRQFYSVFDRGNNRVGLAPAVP
Description: as §1, §2, §3, §4, §5, §6

[1] = human, in vivo; cited from earlier work

COC(=O)N[C@H](C(=O)N[C@@H](Cc1ccccc1)[C@@H](O)CN(Cc1ccc(-c2ccccn2)cc1)NC(=O)[C@@H](NC(=O)OC)C(C)(C)C)C(C)(C)C [atazanavir]
inhibition of cleavage of resistin by cathepsin D (cathepsin D; 24 hr at 37° C.): not detectably inhibited
inhibition of cleavage of resistin by cathepsin E (cathepsin E; 24 hr at room temperature): not detectably inhibited
change in fasting LDL cholesterol, total cholesterol, and fasting triglycerides [1]: either no change or decreases

CC(C)(C)NC(=O)[C@@H]1CN(Cc2cccnc2)CCN1C[C@@H](O)C[C@@H](Cc1ccccc1)C(=O)N[C@H]1c2ccccc2C[C@H]1O [indinavir]
inhibition of cleavage of resistin by cathepsin D (cathepsin D; 24 hr at 37° C.): not
inhibition of cleavage of resistin by cathepsin E (cathepsin E; 24 hr at room temperature): not

Cc1cccc(C)c1OCC(=O)N[C@@H](Cc1ccccc1)[C@@H](O)C[C@H](Cc1ccccc1)NC(=O)[C@H](C(C)C)N1CCCNC1=O [lopinovir]
correlation of lipid abnormalities with plasma concentrations [1]: did not correlate

Cc1c(O)cccc1C(=O)N[C@@H](CSc1ccccc1)[C@H](O)CN1C[C@H]2CCCC[C@H]2C[C@H]1C(=O)NC(C)(C)C [nelfinavir]
inhibition of cleavage of resistin by cathepsin D (cathepsin D; 24 hr at 37° C.): not
inhibition of cleavage of resistin by cathepsin E (cathepsin E; 24 hr at room temperature): not
association with HIV-1 protease inhibitor induced metabolic abnormalities [1]: are not

CC(C)c1nc(CN(C)C(=O)N[C@H](C(=O)N[C@@H](Cc2ccccc2)C[C@H](O)[C@H](Cc2ccccc2)NC(=O)OCc2cncs2)C(C)C)cs1 [ritonavir]
concentration at which cleavage of resistin by cathepsin D was detectably inhibited (cathepsin D; 24 hr at 37° C., FIG. 2): 30 µM
concentration at which cleavage of resistin by cathepsin D was detectably inhibited (cathepsin D; Example 1, FIG. 2, 24 hr at 37° C.): 30 µM
concentration at which cathepsin D was fully inhibited (cathepsin D; Example 1, resistin cleavage): 100 µM
concentration at which cathepsin D was fully inhibited (cathepsin D; resistin cleavage, 24 hr at 37° C.): 100 µM
concentration at which cleavage of resistin by cathepsin E was detectably inhibited (cathepsin E; 24 hr at room temperature, FIG. 2): 10 µM
concentration at which cleavage of resistin by cathepsin E was detectably inhibited (cathepsin E; Example 1, FIG. 2, 24 hr at room temperature): 10 µM
concentration at which cathepsin E was fully inhibited (cathepsin E; Example 1, resistin cleavage): 30 µM
concentration at which cathepsin E was fully inhibited (cathepsin E; resistin cleavage, 24 hr at room temperature): 30 µM
elevated plasma cholesterol and plasma triglyceride levels [1]: significantly more pronounced
frequency of hypertriglyceridaemia [1]: more frequent
hypercholesterolemia [1]: observed
hypertriglyceridaemia [1]: severe hypertriglyceridaemia

CC(C)(C)NC(=O)[C@@H]1C[C@@H]2CCCC[C@@H]2CN1C[C@@H](O)[C@H](Cc1ccccc1)NC(=O)[C@H](CC(N)=O)NC(=O)c1ccc2ccccc2n1 [saquinavir]
inhibition of cleavage of resistin by cathepsin D (cathepsin D; 24 hr at 37° C.): prevented
inhibition of cleavage of resistin by cathepsin E (cathepsin E; 24 hr at room temperature): prevented
association with HIV-1 protease inhibitor induced metabolic abnormalities [1]: known to be associated
